Source: PubChem BioAssay AID256 (DTP/NCI, 2004)
Where “and” joins values, the source holds several entries; their conditions need not be identical. Equal values may be shown once. Toxic doses and inconclusive results are not listed. How the source made its calls: active means survival T/C of 150% or more; inactive means T/C below 125% in these data.

System: CD2F1 mice, L1210 leukemia ip, survival T/C
Test: NCI In Vivo Anticancer Drug Screen. Data for tumor model L1210 Leukemia (intraperitoneal) in CD2F1 (CDF1) mice
Details: higher = longer survival
Outline: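 Vehicle-treated tumor-bearing mice served as controls (C) for compound-treated mice (T). Reported figure is T divided by C.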

[1] = endpoint: mean survival time, dose: 100.0 mg/kg/injection, schedule: Q01DX009 (ip), vehicle: saline with Tween-80
[2] = endpoint: mean survival time, dose: 100.0 mg/kg/injection, schedule: Q04DX003 (ip), vehicle: saline with Tween-80
[3] = endpoint: mean survival time, dose: 200.0 mg/kg/injection, schedule: Q01DX009 (ip), vehicle: saline with Tween-80
[4] = endpoint: mean survival time, dose: 200.0 mg/kg/injection, schedule: Q04DX003 (ip), vehicle: saline with Tween-80
[5] = endpoint: mean survival time, dose: 400.0 mg/kg/injection, schedule: Q04DX003 (ip), vehicle: saline with Tween-80
[6] = endpoint: mean survival time, dose: 6.25 mg/kg/injection, schedule: Q04DX003 (ip), vehicle: saline with Tween-80
[7] = endpoint: mean survival time, dose: 12.5 mg/kg/injection, schedule: Q04DX003 (ip), vehicle: saline with Tween-80
[8] = endpoint: mean survival time, dose: 100.0 mg/kg/injection, schedule: Q01DX001 (ip), vehicle: saline with Tween-80
[9] = endpoint: mean survival time, dose: 200.0 mg/kg/injection, schedule: Q01DX001 (ip), vehicle: saline with Tween-80
[10] = endpoint: mean survival time, dose: 400.0 mg/kg/injection, schedule: Q01DX001 (ip), vehicle: saline with Tween-80
[11] = endpoint: mean survival time, dose: 100.0 mg/kg/injection, schedule: Q04DX003 (ip), vehicle: Klucel (hydroxypropylcellulose) (HPC)
[12] = endpoint: mean survival time, dose: 200.0 mg/kg/injection, schedule: Q04DX003 (ip), vehicle: Klucel (hydroxypropylcellulose) (HPC)
[13] = endpoint: mean survival time, dose: 400.0 mg/kg/injection, schedule: Q04DX003 (ip), vehicle: Klucel (hydroxypropylcellulose) (HPC)
[14] = endpoint: mean survival time, dose: 400.0 mg/kg/injection, schedule: Q01DX009 (ip), vehicle: saline with Tween-80

Measured: T/C

N#Cc1nc(N)nc2c1ncn2C1OC(CO)C(O)C1O (stereo not drawn)
inactive: endpoint: median survival time, dose: 8.75 mg/kg/injection, schedule: Q01DX005 (ip), vehicle: distilled water + Tween-80 100 % of control | endpoint: median survival time, dose: 17.5 mg/kg/injection, schedule: Q01DX005 (ip), vehicle: distilled water + Tween-80 107 % of control | endpoint: median survival time, dose: 35.0 mg/kg/injection, schedule: Q01DX005 (ip), vehicle: distilled water + Tween-80 100 % of control | endpoint: median survival time, dose: 70.0 mg/kg/injection, schedule: Q01DX005 (ip), vehicle: distilled water + Tween-80 100 % of control | endpoint: median survival time, dose: 140.0 mg/kg/injection, schedule: Q01DX005 (ip), vehicle: distilled water + Tween-80 101 % of control

O=C(O)c1cccc(S(=O)(=O)N(CCO)CCO)c1
inactive: [1] 94 % of control | [2] 98 % of control | [3] 94 % of control | [4] 94 % of control | [5] 94 % of control

O=C1C(Cl)=C(NCC2CCC(CO)CC2)C(=O)c2ccccc21 (stereo not drawn)
inactive: [6] 98 % of control | [7] 97 % of control | endpoint: mean survival time, dose: 25.0 mg/kg/injection, schedule: Q04DX003 (ip), vehicle: saline with Tween-80 95 % of control and 98 % of control

C1CCC(NC2=NCCO2)CC1
inactive: [2] 90 % of control

CC(=O)N(C)C
inactive: endpoint: mean survival time, dose: 62.0 mg/kg/injection, schedule: Q01DX Z (ip), vehicle: saline 92 % of control | endpoint: mean survival time, dose: 112.0 mg/kg/injection, schedule: Q01DX009 (ip), vehicle: saline 100 % of control | endpoint: mean survival time, dose: 122.5 mg/kg/injection, schedule: Q01DX009 (ip), vehicle: saline 91 % of control | endpoint: mean survival time, dose: 125.0 mg/kg/injection, schedule: Q01DX Z (ip), vehicle: saline 96 % of control | endpoint: mean survival time, dose: 225.0 mg/kg/injection, schedule: Q01DX009 (ip), vehicle: saline 95 % of control and 97 % of control | endpoint: mean survival time, dose: 250.0 mg/kg/injection, schedule: Q01DX Z (ip), vehicle: saline 92 % of control | endpoint: mean survival time, dose: 450.0 mg/kg/injection, schedule: Q01DX009 (ip), vehicle: saline 101 % of control and 103 % of control | endpoint: mean survival time, dose: 500.0 mg/kg/injection, schedule: Q01DX Z (ip), vehicle: saline 102 % of control | endpoint: mean survival time, dose: 900.0 mg/kg/injection, schedule: Q01DX009 (ip), vehicle: saline 89 % of control and 90 % of control | endpoint: mean survival time, dose: 1800.0 mg/kg/injection, schedule: Q01DX009 (ip), vehicle: saline 117 % of control and 112 % of control

COCc1ccc(C(=O)O)cc1
inactive: [8] 105 % of control | [9] 96 % of control | [10] 97 % of control

O=C(COc1ccccc1)N(/N=C/c1ccccc1)C(=O)c1ccccc1
inactive: endpoint: mean survival time, dose: 100.0 mg/kg/injection, schedule: Q01DX009 (ip), vehicle: Klucel (hydroxypropylcellulose) (HPC) 96 % of control | [11] 94 % of control | endpoint: mean survival time, dose: 200.0 mg/kg/injection, schedule: Q01DX009 (ip), vehicle: Klucel (hydroxypropylcellulose) (HPC) 96 % of control | [12] 92 % of control | endpoint: mean survival time, dose: 400.0 mg/kg/injection, schedule: Q01DX009 (ip), vehicle: Klucel (hydroxypropylcellulose) (HPC) 89 % of control | [13] 94 % of control

COC(=O)C1C2OC(C(Br)C2Br)C1C(=O)OC (stereo not drawn)
inactive: [1] 100 % of control | [2] 97 % of control | [3] 92 % of control | [4] 93 % of control | [14] 100 % of control | [5] 92 % of control

CCOC(=O)Nc1cc(N)c2[nH]cnc2n1
inactive: endpoint: mean survival time, dose: 100.0 mg/kg/injection, schedule: Q01DX001 (ip), vehicle: carboxymethylcellulose (CMC) 96 % of control

OC1(O)CCN(Cc2ccccc2)CC1
inactive: endpoint: mean survival time, dose: 100.0 mg/kg/injection, schedule: Q04DX003 (ip), vehicle: acetone 94 % of control | endpoint: mean survival time, dose: 200.0 mg/kg/injection, schedule: Q04DX003 (ip), vehicle: acetone 96 % of control | endpoint: mean survival time, dose: 400.0 mg/kg/injection, schedule: Q04DX003 (ip), vehicle: acetone 94 % of control

C[n+]1c(/C=C\c2ccc(Cl)cc2)ccc2ccccc21
inactive: endpoint: mean survival time, dose: 3.13 mg/kg/injection, schedule: Q01DX009 (ip), vehicle: saline with Tween-80 96 % of control | endpoint: mean survival time, dose: 6.25 mg/kg/injection, schedule: Q01DX009 (ip), vehicle: saline with Tween-80 98 % of control | [6] 98 % of control | [7] 90 % of control

O=[N+]([O-])c1ccccc1O
inactive: [11] 97 % of control | [12] 97 % of control | [13] 96 % of control

N#C/C=C1\NC(=O)CS1
inactive: [1] 114 % of control | [2] 96 % of control | [3] 101 % of control | [4] 100 % of control | [5] 102 % of control

CCCCCCCCOc1ccc(/C=N\N=C\c2ccc(OCCCCCCCC)cc2)cc1
inactive: [2] 94 % of control | [4] 94 % of control | [5] 94 % of control

COc1cc2c(cc1OC)C(CCN)NCC2 (stereo not drawn)
inactive: [8] 97 % of control | [9] 100 % of control | [10] 94 % of control

Oc1ccc(/C=N/NC(=S)NN2CCOCC2)nc1
inactive: endpoint: mean survival time, dose: 3.12 mg/kg/injection, schedule: Q01DX009 (ip), vehicle: Klucel (hydroxypropylcellulose) (HPC) 103 % of control | endpoint: mean survival time, dose: 6.25 mg/kg/injection, schedule: Q01DX009 (ip), vehicle: Klucel (hydroxypropylcellulose) (HPC) 104 % of control | endpoint: mean survival time, dose: 12.5 mg/kg/injection, schedule: Q01DX009 (ip), vehicle: Klucel (hydroxypropylcellulose) (HPC) 101 % of control | endpoint: mean survival time, dose: 25.0 mg/kg/injection, schedule: Q01DX009 (ip), vehicle: Klucel (hydroxypropylcellulose) (HPC) 121 % of control | endpoint: mean survival time, dose: 25.0 mg/kg/injection, schedule: Q04DX002 (ip), vehicle: saline with Tween-80 101 % of control | endpoint: mean survival time, dose: 50.0 mg/kg/injection, schedule: Q01DX009 (ip), vehicle: Klucel (hydroxypropylcellulose) (HPC) 95 % of control | endpoint: mean survival time, dose: 100.0 mg/kg/injection, schedule: Q04DX002 (ip), vehicle: saline with Tween-80 91 % of control and 94 % of control

COc1ccc2oc3c(ccc[n+]3C)c(=O)c2c1
inactive: endpoint: median survival time, dose: 60.0 mg/kg/injection, schedule: Q01DX005 (ip), vehicle: saline with Tween-80 104 % of control | endpoint: median survival time, dose: 120.0 mg/kg/injection, schedule: Q01DX005 (ip), vehicle: saline with Tween-80 108 % of control | endpoint: median survival time, dose: 240.0 mg/kg/injection, schedule: Q01DX005 (ip), vehicle: saline with Tween-80 122 % of control

CC(=O)OCC1OC(n2ncc3c(Nc4ccccc4)ncnc32)C(OC(C)=O)C1OC(C)=O (stereo not drawn)
inactive: endpoint: mean survival time, dose: 25.0 mg/kg/injection, schedule: Q01DX009 (ip), vehicle: saline with Tween-80 93 % of control | endpoint: mean survival time, dose: 50.0 mg/kg/injection, schedule: Q01DX009 (ip), vehicle: saline with Tween-80 100 % of control | [1] 87 % of control | [3] 100 % of control | [14] 100 % of control

Cc1ccc(C2NC(=S)N3C(c4ccc(C)cc4)NC(=S)N23)cc1 (stereo not drawn)
inactive: endpoint: median survival time, dose: 25.0 mg/kg/injection, schedule: Q01DX009 (ip), vehicle: Klucel (hydroxypropylcellulose) (HPC) 105 % of control | endpoint: median survival time, dose: 50.0 mg/kg/injection, schedule: Q01DX009 (ip), vehicle: Klucel (hydroxypropylcellulose) (HPC) 104 % of control | endpoint: median survival time, dose: 100.0 mg/kg/injection, schedule: Q01DX009 (ip), vehicle: Klucel (hydroxypropylcellulose) (HPC) 106 % of control | endpoint: median survival time, dose: 200.0 mg/kg/injection, schedule: Q01DX009 (ip), vehicle: Klucel (hydroxypropylcellulose) (HPC) 104 % of control | endpoint: median survival time, dose: 400.0 mg/kg/injection, schedule: Q01DX009 (ip), vehicle: Klucel (hydroxypropylcellulose) (HPC) 101 % of control | endpoint: median survival time, dose: 800.0 mg/kg/injection, schedule: Q01DX009 (ip), vehicle: Klucel (hydroxypropylcellulose) (HPC) 106 % of control

COC1CC2C3CCC4(OC5CC(C)CN(C(C)=O)C5C4C)C(C)=C3C(=O)C2C2(C)CCC3CC312 (stereo not drawn)
inactive: [2] 106 % of control | [4] 101 % of control | [5] 104 % of control

COC1C(O)C(O)C(O)C(O)C1O (stereo not drawn)
inactive: endpoint: mean survival time, dose: 100.0 mg/kg/injection, schedule: Q04DX003 (ip), vehicle: saline 95 % of control | endpoint: mean survival time, dose: 200.0 mg/kg/injection, schedule: Q04DX003 (ip), vehicle: saline 92 % of control | endpoint: mean survival time, dose: 400.0 mg/kg/injection, schedule: Q04DX003 (ip), vehicle: saline 93 % of control
